Here are results for one compound from patent US20250002473A1, “QUINOXALINE DERIVED SULFONAMIDES WITH EGFR DEGRADATION ACTIVITIES AND THEIR USES THEREOF” (Accutar Biotechnology Inc., priority 2023, published 2025).

Structures are written as SMILES. Some results are limits rather than exact numbers.

Holding throughout (assay type): cell-based
One test has as its system BaF3_ASV. Nature of the test: Cell growth inhibition assay (CellTiter-Glo), BaF3_ASV. Conditions: Table 7; BaF3_ASV cells; head prints 24 h; read-out: GI50 (nM), 24 h, BaF3_ASV.
The next test concerns A431. The test can be described thus: Cell growth inhibition assay (CellTiter-Glo), A431. Conditions: Homo sapiens, A-431, 24 h, Table 7; A431 cells; head prints 24 h; read-out: GI50 (nM), 24 h, A431. The method, boiled down:
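Cells were plated in 96-well plates (Corning 3610) at 90 μL of culture medium per well and incubated overnight at 37° C. The next day, a 1,000× DMSO compound stock was diluted 1:100 in cell culture medium, and 10 μL was added per well. After shaking for 10 min, luminescence was read on an Envision (PerkinElmer) reader.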

The next test concerns BaF3_SVD. Nature of the test: Cell growth inhibition assay (CellTiter-Glo), BaF3_SVD. Conditions: Table 7; BaF3_SVD cells. On the procedure: (§1) Cells were seeded in a 96-well plate (Corning 3610) with 90 μL of culture medium per well, and plates were incubated at 37° C. overnight. A 1,000× DMSO stock solution of the desired compound was prepared the following day. A compound dilution plate was prepared by diluting the stock solution 1:100 in the corresponding cell culture medium, 10 μL of the diluted compound solution was added to each 96-well plate well containing the seeded cells. Then, the cells were cultured at 37° C. for three days following compound treatment, 100 μL of CellTiter-Glo reagents (Promega G7573) was added to each well of the 96-well plate. The content of the wells was mixed by shaking continuously for 10 min, and luminescence was measured using Envision (PerkinElmer). The data were analyzed with GraphPad Prism 9 (see FIG. 50).
(§2) Table 6, Table 7, and Table 8 list the cell growth inhibition results, where Gls0 represents the compound concentration to cause 50% cell growth inhibition in comparison with DMSO.

For another test, the target named is T1, A431 (EGFR_WT) (Homo sapiens, UniProt P00533).
T1 construct: endogenous in cells; host or cells: A431, NCI-H2073, NCI-H292
Nature of the test: EGFR degradation assay (western blot), A431 cells. The settings on record: Table 5, 24 h, read-out: DC50 (nM), 24 h, A431. On the procedure: (§3) A431 (EGFR_WT), NCl-H2073 (EGFR_WT), NCl-H292 (EGFR_WT), BaF3_YVAM (Her2_A775insYVAM), BaF3_SVD (EGFR_D770insSVD), BaF3_ASV (EGFR_A776inASV), or BaF3_DTC (EGFR_Exon19del/T790M/C797S) cells were seeded in a 24-well plate at a density of 4×10^5 cells per well for EGFR WT cells and 8× cells per well for EGFR or Her2 mutant cells, and the plates were incubated overnight. The cells were treated with the desired compounds for 24 h. The culture medium was removed, and 100 μL of RIPA buffer (Beyotime, P0013B) containing 1% Protease Inhibitor Cocktail (Bimake, B14001), 1% Phosphatase Inhibitor Cocktail 2 (Sigma, P5726), and 1% Phosphatase Inhibitor Cocktail 3 (Sigma, P0044) were added to lyse the cells. Then, the cell lysates were transferred to 1.5 mL microcentrifuge tubes and centrifuged at 12,000 rpm and 4° C. for 30 min. The supernatants were transferred into new tubes, and the protein concentration was determined using the BCA protein quantification method. All samples were diluted to the same concentration using RIPA buffer, loading buffer was added, samples were denatured, and 15 μg of protein per lane was loaded onto a SurePAGE 4-20% Bis-Tris gel. Samples were separated via electrophoresis in MOPS running buffer at 180 V for 100 min. Then, proteins were transferred onto PVDF membranes using the MiniBlot™ Electrophoretic Transfer Cell Device (Beyotime, E6050). The membrane was blocked using block buffer (LI-COR 927-60001) to prevent non-specific binding. The membrane was incubated with primary antibodies (1:500 dilution, EGFR-CST4405, 1:2000 dilution, Tubulin-ABclonal #AC021) at 4° C. overnight. The membrane was washed three times with 1× TBST buffer for 15 min each. The membrane was incubated with secondary antibodies IRDye 680RD Goat anti-Rabbit IgG Secondary Antibody (1:2000 dilution, LI-COR 926-68071) and IRDye 800CW Goat anti-Mouse IgG Secondary Antibody (1:2000 dilution, LI-COR 926-32210). Finally, the membrane was washed again with 1× TBST buffer 3 times. Fluorescence was detected using the Odyssey CLx Imaging System, and the data were analyzed with Empiria Studio Software and GraphPad Prism 9. Table 4 and Table 5 list the degradation results, where the degradation potency is represented by DC50, the concentration of compounds to cause the degradation of 50% of the corresponding proteins. FIGS. 45-49 show western blots illustrating the EGFR degradative activity of exemplary Compound of the present disclosure and a comparator Compound A in different cell lines 24 h after administration. The Compound referred herein as Compound A is disclosed in WO 2022/171123 A1 (see, compound 133, page 46; published Aug. 18, 2022). WO 2022/171123 A1 discloses phosphine oxide derived molecules with EGFR degradation activity.
For orientation: A western blot detects proteins with antibodies after separation by electrophoresis.

Test [1] concerns BaF3_DTC (EGFR_Exon19del/T790M/C797S). The test can be described thus: EGFR degradation assay (western blot), BaF3_DTC cells. The settings on record: Table 5; BaF3_Del19/T790M/C797S cells, 24 h; read-out: DC50 (nM), 24 h, BaF3_Del19/T790M/C797S. The method, boiled down:
(§4)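 Cells seeded overnight, then exposed to compounds for 24 h; lysates run on western blot, EGFR probed with tubulin loading control and fluorescent secondary detection. DC50 = concentration giving 50% EGFR degradation.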

Another test concerns the target T2, NCl-H2073 (EGFR_WT) (Homo sapiens, UniProt P00533).
T2 construct: endogenous in cells; host or cells: A431, NCI-H2073, NCI-H292
The test can be described thus: EGFR degradation assay (western blot), NCl-H2073 cells. Conditions: Table 5; NCI-H2073 cells (EGFR_WT), 24 h. Here is the method:
(§5) A431 (EGFR_WT), NCl-H2073 (EGFR_WT), NCl-H292 (EGFR_WT), BaF3_YVAM (Her2_A775insYVAM), BaF3_SVD (EGFR_D770insSVD), BaF3_ASV (EGFR_A776inASV), or BaF3_DTC (EGFR_Exon19del/T790M/C797S) cells were seeded in a 24-well plate at a density of 4×10^5 cells per well for EGFR WT cells and 8× cells per well for EGFR or Her2 mutant cells, and the plates were incubated overnight. The cells were treated with the desired compounds for 24 h. The culture medium was removed, and 100 μL of RIPA buffer (Beyotime, P0013B) containing 1% Protease Inhibitor Cocktail (Bimake, B14001), 1% Phosphatase Inhibitor Cocktail 2 (Sigma, P5726), and 1% Phosphatase Inhibitor Cocktail 3 (Sigma, P0044) were added to lyse the cells. Then, the cell lysates were transferred to 1.5 mL microcentrifuge tubes and centrifuged at 12,000 rpm and 4° C. for 30 min. The supernatants were transferred into new tubes, and the protein concentration was determined using the BCA protein quantification method. All samples were diluted to the same concentration using RIPA buffer, loading buffer was added, samples were denatured, and 15 μg of protein per lane was loaded onto a SurePAGE 4-20% Bis-Tris gel. Samples were separated via electrophoresis in MOPS running buffer at 180 V for 100 min. […] Fluorescence was detected using the Odyssey CLx Imaging System, and the data were analyzed with Empiria Studio Software and GraphPad Prism 9. […]

In the next test the test system is BaF3_YVMA. The test can be described thus: Cell growth inhibition assay (CellTiter-Glo), BaF3_YVMA. The settings on record: Table 7; BaF3_YVMA cells; head prints 24 h. Here is the method:
as §1, with “Then, the cells were cultured at 37° C. for three days following compound treatment, 100 μL of CellTiter-Glo reagents (Promega G7573) was added to each well of the 96-well plate.” left out
as §2

For a further test, the system named is NCI-H292. The test can be described thus: Cell growth inhibition assay (CellTiter-Glo), NCI-H292. Conditions: Homo sapiens; Table 7; NCI-H292 cells; head prints 24 h. Here is the method:
as §1, with “Then, the cells were cultured at 37° C. for three days following compound treatment, 100 μL of CellTiter-Glo reagents (Promega G7573) was added to each well of the 96-well plate.” left out
as §2

In test [2] the target is T3, BaF3_YVAM (Her2_A775insYVAM) (Homo sapiens, UniProt P04626, INS775YVMA).
T3 construct: expressed in transfected cells; host or cells: Ba/F3 (engineered)
The test can be described thus: EGFR degradation assay (western blot), BaF3_YVAM cells. The settings on record: Table 5; BaF3_YVMA cells (mutant Her2), 24 h. Here is the method: as §3, with “Finally, the membrane was washed again with 1× TBST buffer 3 times.” left out, “Table 4 and Table 5 list the degradation results, where the degradation potency is represented by DC50, the concentration of compounds to cause the degradation of 50% of the corresponding proteins. FIGS. 45-49 show western blots illustrating the EGFR degradative activity of exemplary Compound of the present disclosure and a comparator Compound A in different cell lines 24 h after administration. The Compound referred herein as Compound A is disclosed in WO 2022/171123 A1 (see, compound 133, page 46; published Aug. 18, 2022). WO 2022/171123 A1 discloses phosphine oxide derived molecules with EGFR degradation activity.” left out

Test [3] deals with T4, BaF3_SVD (EGFR_D770insSVD) (Homo sapiens, UniProt P00533, INS770SVD).
T4 construct: expressed in transfected cells; host or cells: Ba/F3 (engineered)
Nature of the test: EGFR degradation assay (western blot), BaF3_SVD cells. The settings on record: Table 5; BaF3_SVD cells, 24 h. On the procedure: as §3, with “Finally, the membrane was washed again with 1× TBST buffer 3 times.” left out, “Table 4 and Table 5 list the degradation results, where the degradation potency is represented by DC50, the concentration of compounds to cause the degradation of 50% of the corresponding proteins. FIGS. 45-49 show western blots illustrating the EGFR degradative activity of exemplary Compound of the present disclosure and a comparator Compound A in different cell lines 24 h after administration. The Compound referred herein as Compound A is disclosed in WO 2022/171123 A1 (see, compound 133, page 46; published Aug. 18, 2022). WO 2022/171123 A1 discloses phosphine oxide derived molecules with EGFR degradation activity.” left out

Test [4] concerns the target T5, BaF3_ASV (EGFR_A776inASV) (Homo sapiens, UniProt P00533, DUP767-769).
T5 construct: expressed in transfected cells; host or cells: Ba/F3 (engineered)
Nature of the test: EGFR degradation assay (western blot), BaF3_ASV cells. The settings on record: Table 5; BaF3_ASV cells, 24 h; read-out: DC50 (nM), 24 h, BaF3_ASV. The method, boiled down:
as §4

The next test has as its target T6, NCl-H292 (EGFR_WT) (Homo sapiens, UniProt P00533).
T6 construct: endogenous in cells; host or cells: A431, NCI-H2073, NCI-H292
Nature of the test: EGFR degradation assay (western blot), NCl-H292 cells. Conditions: Table 5; NCI-H292 cells (EGFR_WT), 24 h. Here is the method:
as §5

Another test has as its system BaF3_DTC. The test can be described thus: Cell growth inhibition assay (CellTiter-Glo), BaF3_DTC. Conditions: Table 7; BaF3_Del19/T790M/C797S cells; head prints 24 h; read-out: GI50 (nM), 24 h, BaF3_Del19/T790M/C797S. On the technique in general: Cellular ATP, detected with luciferase, serves as a proxy for viable cell number.

T1 sequence (P00533 25-1210): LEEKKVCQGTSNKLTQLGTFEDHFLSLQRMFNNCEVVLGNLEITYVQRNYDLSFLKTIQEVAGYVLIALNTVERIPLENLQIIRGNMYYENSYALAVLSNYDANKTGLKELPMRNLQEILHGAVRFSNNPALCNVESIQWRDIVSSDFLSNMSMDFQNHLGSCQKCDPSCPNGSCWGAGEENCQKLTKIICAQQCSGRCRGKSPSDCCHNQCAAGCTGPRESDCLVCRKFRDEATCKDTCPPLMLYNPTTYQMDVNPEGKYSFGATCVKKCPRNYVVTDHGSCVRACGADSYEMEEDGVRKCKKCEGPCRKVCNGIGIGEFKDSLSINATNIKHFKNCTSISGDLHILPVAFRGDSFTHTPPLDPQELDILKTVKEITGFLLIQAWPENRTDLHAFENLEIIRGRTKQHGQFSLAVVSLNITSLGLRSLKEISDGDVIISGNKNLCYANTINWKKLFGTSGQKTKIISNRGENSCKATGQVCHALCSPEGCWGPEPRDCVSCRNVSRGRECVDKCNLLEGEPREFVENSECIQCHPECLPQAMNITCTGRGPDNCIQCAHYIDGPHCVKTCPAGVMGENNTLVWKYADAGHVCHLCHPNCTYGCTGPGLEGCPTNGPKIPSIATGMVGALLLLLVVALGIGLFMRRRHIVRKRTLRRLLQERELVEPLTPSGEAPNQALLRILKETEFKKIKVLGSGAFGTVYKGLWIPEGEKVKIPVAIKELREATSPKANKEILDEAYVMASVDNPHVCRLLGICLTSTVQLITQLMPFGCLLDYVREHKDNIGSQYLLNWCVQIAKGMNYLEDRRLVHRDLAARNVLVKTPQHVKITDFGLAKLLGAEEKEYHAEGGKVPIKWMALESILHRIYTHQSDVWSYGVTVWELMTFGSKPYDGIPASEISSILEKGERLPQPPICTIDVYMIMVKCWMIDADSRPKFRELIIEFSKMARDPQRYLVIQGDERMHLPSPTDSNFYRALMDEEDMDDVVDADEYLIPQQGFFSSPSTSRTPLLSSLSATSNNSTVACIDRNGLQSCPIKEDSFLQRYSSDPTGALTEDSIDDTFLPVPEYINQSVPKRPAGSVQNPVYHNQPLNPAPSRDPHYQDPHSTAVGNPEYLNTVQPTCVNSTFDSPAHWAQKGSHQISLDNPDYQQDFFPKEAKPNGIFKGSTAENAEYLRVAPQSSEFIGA
T2 sequence (P00533 25-1210): as above
T6 sequence (P00533 25-1210): as above
T3 sequence (P04626 with tags, fused parts or gaps INS775YVMA): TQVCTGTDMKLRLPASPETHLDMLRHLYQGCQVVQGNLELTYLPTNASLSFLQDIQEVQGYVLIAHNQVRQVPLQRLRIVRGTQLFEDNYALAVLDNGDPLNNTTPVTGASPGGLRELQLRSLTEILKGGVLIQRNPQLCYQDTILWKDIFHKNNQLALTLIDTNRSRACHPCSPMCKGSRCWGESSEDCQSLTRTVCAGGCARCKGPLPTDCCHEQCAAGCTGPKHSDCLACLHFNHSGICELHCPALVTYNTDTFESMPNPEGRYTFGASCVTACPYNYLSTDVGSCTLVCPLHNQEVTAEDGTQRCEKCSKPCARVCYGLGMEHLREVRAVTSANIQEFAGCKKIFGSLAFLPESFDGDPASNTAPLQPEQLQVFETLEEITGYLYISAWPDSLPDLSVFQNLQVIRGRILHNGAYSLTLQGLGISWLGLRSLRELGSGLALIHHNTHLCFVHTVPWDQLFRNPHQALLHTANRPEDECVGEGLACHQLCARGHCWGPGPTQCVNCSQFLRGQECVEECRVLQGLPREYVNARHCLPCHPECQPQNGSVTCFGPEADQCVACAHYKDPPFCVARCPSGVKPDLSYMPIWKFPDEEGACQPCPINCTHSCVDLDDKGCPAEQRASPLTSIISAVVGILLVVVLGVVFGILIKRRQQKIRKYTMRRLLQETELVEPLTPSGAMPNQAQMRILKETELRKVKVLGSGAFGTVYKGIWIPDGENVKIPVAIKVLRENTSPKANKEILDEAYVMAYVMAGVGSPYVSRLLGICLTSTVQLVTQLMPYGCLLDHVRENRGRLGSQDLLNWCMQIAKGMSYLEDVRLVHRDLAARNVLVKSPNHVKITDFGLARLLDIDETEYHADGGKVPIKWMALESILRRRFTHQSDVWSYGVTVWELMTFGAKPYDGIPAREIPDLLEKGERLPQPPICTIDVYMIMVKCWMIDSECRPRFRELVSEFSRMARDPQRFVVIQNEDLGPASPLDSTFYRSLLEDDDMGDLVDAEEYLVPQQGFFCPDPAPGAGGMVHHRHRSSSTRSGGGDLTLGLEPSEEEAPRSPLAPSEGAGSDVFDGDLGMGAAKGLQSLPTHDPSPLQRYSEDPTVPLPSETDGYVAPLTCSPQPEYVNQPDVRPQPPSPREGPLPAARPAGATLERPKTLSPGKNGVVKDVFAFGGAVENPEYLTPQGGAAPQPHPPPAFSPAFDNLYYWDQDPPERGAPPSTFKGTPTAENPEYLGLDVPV

With `CCc1cc(Nc2ncc(Br)c(Nc3cnc4ccccc4c3P(C)(C)=O)n2)c(OC)cc1N1CCC(N2CCN(CCc3cccc4c3n(CC)c(=O)n4C3CCC(=O)NC3=O)CC2)CC1` (stereo not shown) [Compound A, reference compound], the GI50 with BaF3_ASV is 824 nM; with A431, > 3000 nM; in the test on BaF3_SVD, 2340 nM; in the test on BaF3_YVMA, 2630 nM; with NCI-H292, > 3000 nM; with BaF3_DTC it was 8.57 nM. Besides, the DC50 is > 1000 nM on A431 (EGFR_WT); 0.622 nM in [1]; > 1000 nM at NCl-H2073 (EGFR_WT); > 1000 nM in test [2]; 280 nM in test [3]; 109 nM in test [4]. Also, the DC50 at NCl-H292 (EGFR_WT) is > 1000 nM.
